Results: article PMC4598023 (PLoS ONE, 2015)
Where two headings read alike, the source gives them in different places. Bridges are numbered along the chain shown (N, C = ends). Where no end group is shown, it is not given here.

T1: human receptor-activity modifying protein 3 Extracellular Topological Domain (human, UniProt O60896 28-117, fluorescein (FITC, below 1 mol per mol protein, position not stated))
T1 construct: human receptor-activity modifying protein 3, extracellular topological domain, residues 28-117 of O60896; pET28b construct with a thrombin cleavage site after the N-terminal histidine tag; no cleavage is told; also called RAMP3-ETD; RAMP3
T1 sequence (looked up): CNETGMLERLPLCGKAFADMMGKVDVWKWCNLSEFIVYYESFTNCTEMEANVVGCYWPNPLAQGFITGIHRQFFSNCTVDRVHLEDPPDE

B1: monoPEGylated human amylin (peptide, UniProt P10997 34-70, looked up)
peptide: KCNTATCATQRLANFLVHSSNNFGAILSSTNVGSNTY-NH2
modifications: disulfide 2-7; also: one methoxy-PEG 5 kDa (mPEG succinimidyl carbonate) at an amino group of Lys1, N-terminal region
notes: human amylin (islet amyloid polypeptide, IAPP), the 37-residue hormone, amino acids 1 to 37; numbers count on: the mature protein; The PEG site was placed by trypsin digestion and MALDI-ToF-MS: fragment 12-37 is unmodified; also called PEGylated amylin; hAmylin-PEG
B2: murine amylin (peptide, UniProt P12968 38-74, looked up)
peptide: KCNTATCATQRLANFLVRSSNNLGPVLPPTNVGSNTY-NH2
modifications: disulfide 2-7; also: FITC (<1 mol/mol, position not given here) on labelled copy only
notes: murine amylin (islet amyloid polypeptide), the 37-residue hormone; numbers count on: the mature protein; The unlabelled ligand and the FITC-labelled copy are written as one molecule; also called free murine amylin; non-conjugated amylin; source: synthetic peptide, bought: Genemed Synthesis Inc

Tests used:
[1] = test system: Trypsin; experiment: trypsin in 25 mM ammonium bicarbonate, after reduction with dithiothreitol and blockage with iodoacetamide; conditions: 37°C, up to 18 h
[2] = cited from earlier work
Excerpt: One additional limitation for the use of the currently available amylinomimetic compound is the lack of ability for mimicking the basal levels of amylin in the fasting state. […] (Fig 6A) and thus a sustained release of amylin of an increasing in its t1/2 would serve as potential strategies for the restoration of basal hormone levels. […] Additionall ...

[3] = Pharmacokinetics after subcutaneous administration in mice (serum amylin by ELISA); assay type: in vivo; conditions: Swiss male mice, s.c., 400 μg peptide/kg; for level at time molar at 5 s / level at time molar at 0.5 min / level at time molar at 1 min / level at time molar at 2 min / level at time molar at 4 min / level at time molar at 0.8 h: male, Swiss, 400 ug peptide/kg, ELISA, read-out: amylin concentration (serum); for level at time molar at 5 s: Time 0.0833 (head: min); for level at time molar at 0.5 min: Time 0.5 (head: min); for level at time molar at 1 min: Time 1 (head: min); for level at time molar at 2 min: Time 2 (head: min); for level at time molar at 4 min: Time 4 (head: min); for level at time molar at 0.8 h: Time 48 (head: min)
Description: Swiss male mice (8 weeks old; n = 4 per group) were administrated of free or monoPEGylated human amylin (both at 400 μg peptide / kg body weight) by subcutaneous route. At the indicated time interval, blood was collected with glass capillary tubes from retro-orbital access and the serum was separated. The concentration of amylin in the plasma was evaluated by ELISA (Merck Millipore, cat # EZHA-52K) by following the manufacturer protocol. The sensitivity of the ELISA assay kit for the monoPEGylated human amylin product was similar to the non-conjugated human amylin as inferred from control analytical curves. In case needed, the mice plasma samples were diluted accordingly in order to achieve the desired concentration range of the ELISA kit. Glucagon was evaluated from the same serum samples, by using an ELISA kit (Merck Millipore, Cat # EZGLU-30K) according to instructions of the manufacturer.
Continuous lines are best fitting of single-exponential decay function to data. b) Modulation of glucagon. […] The raw data can be found in S2 File.

[4] = target: B2; experiment: fluorescence polarisation; fluorescence anisotropy of the FITC-labelled protein (50 nM murine amylin, CTR1 or RAMP3) against total concentration of unlabelled ligand; PBS pH 7.4, 25°C; ex 480 nm, em 520 nm, cut-off filter 515 nm; conditions: both partners purified
[5] = target: T1, human receptor-activity modifying …; experiment: as above; conditions: both partners purified
[6] = fit of serum concentration vs time
[7] = mouse, in vivo, sc, replicate column 1
[8] = mouse, in vivo, sc, replicate column 2

In the case of “KCNTATCATQRLANFLVHSSNNFGAILSSTNVGSNTY-CONH2”, the cleaved bond [1] is reported as “Arg11-L12”.

In the case of `CC[C@H](C)[C@H](NC(=O)[C@H](C)NC(=O)CNC(=O)[C@H](Cc1ccccc1)NC(=O)[C@H](CC(N)=O)NC(=O)[C@H](CC(N)=O)NC(=O)[C@H](CO)NC(=O)[C@H](CO)NC(=O)[C@H](Cc1c[nH]cn1)NC(=O)[C@@H](NC(=O)[C@H](CC(C)C)NC(=O)[C@H](Cc1ccccc1)NC(=O)[C@H](CC(N)=O)NC(=O)[C@H](C)NC(=O)[C@H](CC(C)C)NC(=O)[C@H](CCCNC(=N)N)NC(=O)[C@H](CCC(N)=O)NC(=O)[C@@H](NC(=O)[C@H](C)NC(=O)[C@@H]1CSSC[C@H](NC(=O)[C@@H](N)CCCCN)C(=O)N[C@@H](CC(N)=O)C(=O)N[C@@H]([C@@H](C)O)C(=O)N[C@@H](C)C(=O)N[C@@H]([C@@H](C)O)C(=O)N1)[C@@H](C)O)C(C)C)C(=O)N[C@@H](CC(C)C)C(=O)N[C@@H](CO)C(=O)N[C@@H](CO)C(=O)N[C@H](C(=O)N[C@@H](CC(N)=O)C(=O)N[C@H](C(=O)NCC(=O)N[C@@H](CO)C(=O)N[C@@H](CC(N)=O)C(=O)N[C@H](C(=O)N[C@@H](Cc1ccc(O)cc1)C(N)=O)[C@@H](C)O)C(C)C)[C@@H](C)O` [human amylin], the “half-life (t1/2)” value [2] is given as 15 to 20 min, the “Half Life (One phase decay, best-fit value)” value ([3]; (unit not given)) is given as 0.3893 and the “Tau (One phase decay, best-fit value)” value ([3]; (unit not given)) is given as 0.5616. The “K (One phase decay, best-fit value)” value [3, 6] was 1.781, the “Plateau (One phase decay, best-fit value)” value [3, 6] was 184.9 and the “Span (One phase decay, best-fit value)” value [3, 6] was 6701. For the same molecule, the “Y0 (One phase decay, best-fit value)” value [3, 6] was 6886, the level at time molar at 5 s [3, 7] was 6630 nM and the level at time molar at 5 s [3, 8] was 6710 nM. It also gave a level at time molar at 0.5 min [3, 7] of 4690 nM, a level at time molar at 0.5 min [3, 8] of 659 nM and a level at time molar at 1 min [3, 7] of 2720 nM. For the same molecule, the level at time molar at 1 min [3, 8] was 423 nM, the level at time molar at 2 min [3, 7] was 593 nM and the level at time molar at 2 min [3, 8] was 324 nM. The level at time molar at 4 min [3, 7] was 198 nM, the level at time molar at 4 min [3, 8] was 207 nM and the level at time molar at 0.8 h [3, 7] was 22.7 nM. The level at time molar at 0.8 h [3, 8] was 18.2 nM and the half-life ([3]; mouse, in vivo, sc, serum amylin by ELISA, single-exponential decay fit, n = 4 per group) was 23 min.

B1: binds [4]; binds [5].

B2: binds [5].
